Assay results reported in US11021526B2, “DSG2-derived peptides” (Asclepiumm Taiwan Co., Ltd, priority 2016, dated 2021).
Entries after “also recorded” stand apart in the source; their conditions may differ. Where a SMILES comes first, the peptide text is derived from it.

Legend:
[1] = test system: rat eyes choroidal neovascularization; experiment: Rat laser-induced choroidal neovascularization model; type: in vivo; conditions: injected into vitreous body, 14 days after laser; Eylea 200 μg/5 μl, SEQ97 500 μg/5 μl; n=10
Procedure: The animals were fully anesthetized with a mixture of ketamine hydrochloride/xylazine hydrochloride (7:1, v/v) by intramuscular injection into the thigh muscle at 1 mL/kg. Mydrin®-P ophthalmic solution (Santen Pharmaceutical Co., Ltd.) was instilled into the eyes to dilate the pupils. Laser (wavelength: 532 nm) was used to irradiate the right eye of each animal using a Slit Lamp SL-130 (Carl Zeiss Meditec AG) and a Multicolor Laser Photocoagulator MC-300 (NIDEK Co., Ltd.). Then the peptide dosing formulation was injected into the vitreous body of the right eye using a microsyringe (MS-N10, Ito Corporation) and a 33 G needle (Ito Corporation). Fourteen days after laser irradiation, a 4% FITC-dextran solution was administered into the tail vein in a volume of 1 mL/animal. Then the animals were euthanized by overdose of an anesthetic. The eyeballs were removed and fixed in 4% paraformaldehyde-phosphate buffer for 12-24 hours. Choroidal flat mounts were prepared under a stereoscopic microscope (EZ-4, Leica Microsystems). […]
Eyes of rats were irradiated by 532 nm wave length laser and intraveally treated with peptides (SEQ97), Eylea or PBS. […] After treatment (PBS, Eylea or SEQ97) for 14 days, the photographs of the choroidal neovascularization sites were taken and quantified with ImageJ software. […]

[2] = test system: human umbilical vein endothelial cells (HUVEC); experiment: HUVEC tube formation assay (angiogenesis assay); type: cell-based; conditions: for inhibition of angiogenesis / HUVEC tube structure: HUVEC on Matrigel, five-hour incubation; for collapse of volume of tube structure compared to PBS-treated control: matrigel induced vasculature of HUVEC cells, PBS-dissolved peptides
Excerpt: Overnight starved human umbilical vein endothelial cells (HUVEC) were collected and adjusted to 1.5×10^4 cells/well (in a 96-well plate) with endothelial cell growth medium and then seeded cells on the matrigel-coated well. Different peptides and their modified forms by D-form non-nature amino acids and/or cyclization by adding N- and C-terminal Cystines; also SEQ132 is a reversal of the direction of the peptide backbone SEQ6 (retro modification): (SEQ17, SEQ78, SEQ97, MR9 DF, CMR9C, CMR9C DF, MR9D6 DF, CMR9D6C DF and SEQ132) or control PBS were added into well for five-hour incubation at 37° C. Each well was photographed at ×40 magnification through an upright microscope. Total tube lengths were quantified by using ImageJ software.

MDCK cells = experiment: EMT assay (HGF-induced EMT, inter-nuclear distance); conditions: HGF 2.5 ng/ml
Procedure: MDCK cells (800 cells/well) were seeded onto 96-well plate and incubated in 37° C. and 5% CO2 to become 10% sub-confluence. Then EMT was triggered by adding culture medium with cell scattering factor HGF (R&D system, 2.5 ng/ml) and tested peptides were added (SEQ2˜SEQ31) to block EMT. To measure the inter-nuclear distance, random images were captured at ×50 magnification using an upright microscope. The inter-nuclear distance was measured from the center of one nucleus to that of a neighboring/adjacent nucleus. The distance between the two nuclei was measured by using ImageJ software.

In the case of “Eylea: Eylea, comparator treatment (200 μg/5 μl) in the rat choroidal neovascularization model [reference compound]”, the “inhibition of rat eyes choroidal neovascularization” value [1] was “significantly inhibit”.

RRRRRRRMAEKWKIAR [SEQ78] was tested, and the “inhibition of angiogenesis / HUVEC tube structure” value [2] was “inhibit angiogenesis”.

With MAEKWKIARDDDDDD [MR9D6 DF] the “collapse of volume of tube structure compared to PBS-treated control” value [2] was 95%.

For VSTSEQRAIKWKEAM [SEQ132], the “inhibition of angiogenesis / HUVEC tube structure” value [2] was “strong efficacy to inhibit HUVEC tube structure”.

For MAEKWKIARDDDDDD [SEQ97], the “inhibition of angiogenesis / HUVEC tube structure” value [2] was “inhibit angiogenesis” and the “inhibition of rat eyes choroidal neovascularization” value [1] was “significantly inhibit”.

For `CC[C@H](C)[C@H](NC(=O)[C@@H](NC(=O)[C@H](CO)NC(=O)[C@H](Cc1ccccc1)NC(=O)[C@@H](N)CO)C(C)C)C(=O)N[C@@H](CC(=O)O)C(=O)N[C@@H](CCCCN)C(=O)N1CCC[C@H]1C(=O)N1CCC[C@H]1C(=O)NCC(=O)N[C@@H](CCSC)C(=O)N[C@@H](C)C(=O)N[C@@H](CCC(=O)O)C(=O)N[C@@H](CCCCN)C(=O)N[C@@H](Cc1c[nH]c2ccccc12)C(=O)O` [SEQ5, SFSVIDKPPGMAEKW] (H-SFSVIDKPPGMAEKW-OH; N-terminus and C-terminus assumed), the “inhibition of HGF (hepatocyte growth factor) induced EMT (epithelial-mesenchymal transition)” value (shortened to “inhibition of HGF”) (MDCK cells) was “inhibited”.

For CMAEKWKIARDDDDDDC [CMR9D6C DF], the “collapse of volume of tube structure compared to PBS-treated control” value [2] was 95%.

In the case of `CC[C@H](C)[C@H](NC(=O)[C@H](CCCCN)NC(=O)[C@H](Cc1c[nH]c2ccccc12)NC(=O)[C@H](CCCCN)NC(=O)[C@H](CCC(=O)O)NC(=O)[C@H](C)NC(=O)[C@@H](N)CCSC)C(=O)N[C@@H](C)C(=O)N[C@@H](CCCNC(=N)N)C(=O)N[C@@H](CCC(N)=O)C(=O)N[C@@H](CCC(=O)O)C(=O)O` [SEQ15, MAEKWKIARQE] (H-MAEKWKIARQE-OH; N-terminus and C-terminus assumed), the “inhibition of HGF” value (MDCK cells) was “excellent inhibiting abilities similar to SEQ6”.

For `CC[C@H](C)[C@H](NC(=O)[C@H](CCCCN)NC(=O)[C@H](Cc1c[nH]c2ccccc12)NC(=O)[C@H](CCCCN)NC(=O)[C@H](CCC(=O)O)NC(=O)[C@H](C)NC(=O)[C@@H](N)CCSC)C(=O)N[C@@H](C)C(=O)N[C@@H](CCCNC(=N)N)C(=O)O` [SEQ17, MAEKWKIAR] (H-MAEKWKIAR-OH; N-terminus and C-terminus assumed), the “inhibition of HGF” value (MDCK cells) was “advantageous effect in the inhibition of EMT; also recorded: excellent inhibiting abilities similar to SEQ6”.

With `CC[C@H](C)[C@H](NC(=O)[C@H](CC(C)C)NC(=O)[C@H](Cc1ccccc1)NC(=O)[C@H](CCC(N)=O)NC(=O)[C@@H](NC(=O)[C@H](CCC(=O)O)NC(=O)[C@H](CO)NC(=O)[C@H](CCCNC(=N)N)NC(=O)CNC(=O)[C@H](CC(C)C)NC(=O)[C@H](CCCCN)NC(=O)[C@H](CCCCN)NC(=O)[C@@H](N)CCC(=O)O)[C@@H](C)CC)C(=O)N[C@@H](CO)C(=O)N[C@@H](CC(=O)O)C(=O)O` [SEQ8, EKKLGRSEIQFLISD] (H-EKKLGRSEIQFLISD-OH; N-terminus and C-terminus assumed) the “inhibition of HGF” value (MDCK cells) was “inhibited”.
